GI50 and TGI data for five compounds are collected here from PubChem BioAssay (NCI).

What all share (assay): NCI tumour cell line growth inhibition, 48 h
Assay [1] deals with HL-60(TB) leukemia.
Assay [2] has as its system SF-539 CNS.
Assay [3] concerns A549 NSCLC.
Assay [4] has as its system SN12C renal.
Assay [5] concerns BT-549 breast.
The test system of assay [6] is OVCAR-3 ovarian.
In assay [7] the test system is TK-10 renal.
The subject of assay [8] is SK-MEL-2 melanoma.
Assay [9] relates to MDA-MB-435.
For assay [10], the system named is NCI-H460 lung.

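Step 1: Grow cells in 96-well plates. Step 2: Expose to compound for 48 hours at 5 concentrations. Step 3: Interpolate endpoints linearly; if unreached, use highest concentration. At the GI50, growth is halved. TGI: concentration producing complete growth inhibition.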

Regarding `COCCN(CCOC)c1nc(-c2ccccc2)nc2ccccc12`, the GI50 is 30.3 µM in [1]; 24.3 µM in assay [2]; 30.1 µM in assay [3]; 29.1 µM in [4]; 22.5 µM in assay [5]; 31.3 µM in assay [6]. The GI50 in assay [7] was 30.7 µM; in assay [8], 19.2 µM; in [9], 21.9 µM; in [10] it was 20.8 µM. The TGI in assay [1] was more than 100 µM; in [2] it was 52.9 µM; in assay [3] it was more than 100 µM; in [4] it was more than 100 µM; in assay [5], 47.7 µM; in assay [6], more than 100 µM. The TGI in assay [7] came out at 78.4 µM; in [8], 44.6 µM; in [9], 55.8 µM; in [10] it was 79.2 µM.
For the compound `CCCCS(=O)c1sc2nc(-c3cccs3)cc(-c3ccccc3)c2c1N` (stereo not given), the GI50 in assay [1] is 14.5 µM; in [2], 24.7 µM; in assay [3], 9.69 µM; in assay [4], 24.9 µM; in assay [5], 9.24 µM; in assay [6], 14.3 µM. The GI50 is 15 µM in assay [7], 17.3 µM in assay [8], 17.3 µM in assay [9] and 13 µM in assay [10]. Also, the TGI in assay [1] is more than 85.5 µM; in [2] it was more than 100 µM; in assay [3], more than 100 µM; in [4] it was more than 100 µM; in assay [5] it was 67.9 µM; in assay [6], more than 100 µM. Moreover, the TGI was more than 84 µM in assay [7], 47.8 µM in assay [8], 99.7 µM in assay [9] and more than 96.8 µM in [10].
Take `OCCCCC#Cc1ccccc1C#Cc1cccc(C(F)(F)F)c1`: the GI50 was 24.6 µM in assay [1]; 20.1 µM in assay [2]; 15.1 µM in assay [3]; 18.9 µM in assay [4]; 16.4 µM in assay [5]; 16.8 µM in assay [6]. In addition, the GI50 is 16.9 µM in [7], 19.7 µM in [8], 16.9 µM in assay [9] and 18.4 µM in [10]. Besides, the TGI worked out at 59.5 µM in [1]; 38 µM in [2]; 28.6 µM in [3]; 33 µM in assay [4]; 30.7 µM in assay [5]; 31.6 µM in assay [6]. For the same compound, the TGI in assay [7] was determined as 32.2 µM; in [8] it was 42.1 µM; in assay [9], 31.6 µM; in [10] it was 40.6 µM.
Turning to `COCCN(Cc1ccc(F)cc1)c1ccc(CO)c(Cl)c1`, the GI50 in assay [1] is 27.4 µM; in assay [2], more than 71.3 µM; in assay [3], 10.4 µM; in assay [4] it was 24.9 µM; in assay [5], 40.4 µM; in assay [6], 3.54 µM. The GI50 was 0.271 µM in [7], 20.6 µM in [8], 55.5 µM in assay [9] and 1.9 µM in assay [10]. The TGI in assay [1] was more than 75.4 µM; in [2] it was more than 100 µM; in assay [3], more than 79.5 µM; in assay [4] it was more than 100 µM; in assay [5] it was more than 100 µM; in [6], 15.4 µM. Besides, the TGI in assay [7] is 1.66 µM; in [8], 59.5 µM; in assay [9] it was more than 100 µM; in [10], more than 43.6 µM.
Consider `CCO/C=C1\SC(=S)N(c2ccc(OCC)cc2)C1=O`, for which the TGI in assay [1], in assay [2], in [3], in [4], in [5] and in assay [6] was more than 100 µM throughout. The TGI in assay [7], in [8], in [9] and in [10] was more than 100 µM in each case.
